Reference: ChEMBL document CHEMBL3991601, “The target landscape of clinical kinase drugs” (Science, 2017)
Active and inactive are the calls of the source. Cut-off read from the data, not from the text of the source, for most assays here: actives have a measured Kd and inactives only a lower limit.

Legend:
[1] = biological target: T1, NUAK family SNF1-like kinase 2 (Homo sapiens, UniProt Q9H093)
T1 sequence (Q9H093 whole entry): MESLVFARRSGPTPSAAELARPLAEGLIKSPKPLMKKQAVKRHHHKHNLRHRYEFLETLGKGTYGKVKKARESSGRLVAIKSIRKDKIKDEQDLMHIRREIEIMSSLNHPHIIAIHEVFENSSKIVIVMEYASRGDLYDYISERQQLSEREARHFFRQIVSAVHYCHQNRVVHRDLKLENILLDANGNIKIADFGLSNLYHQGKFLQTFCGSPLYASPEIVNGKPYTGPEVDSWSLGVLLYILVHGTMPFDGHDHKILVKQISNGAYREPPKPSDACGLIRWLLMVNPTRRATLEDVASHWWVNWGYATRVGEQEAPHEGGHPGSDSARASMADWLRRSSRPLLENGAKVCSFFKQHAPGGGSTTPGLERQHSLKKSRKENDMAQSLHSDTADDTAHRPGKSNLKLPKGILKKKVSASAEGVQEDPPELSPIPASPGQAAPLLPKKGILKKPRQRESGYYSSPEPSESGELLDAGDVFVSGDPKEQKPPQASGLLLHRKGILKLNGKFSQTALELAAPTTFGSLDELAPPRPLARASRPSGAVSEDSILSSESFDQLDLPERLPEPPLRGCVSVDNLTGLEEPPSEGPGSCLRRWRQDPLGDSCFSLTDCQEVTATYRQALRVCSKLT

[2] = biological target: T2, Serine/threonine-protein kinase TBK1 (Homo sapiens, UniProt Q9UHD2)
T2 sequence (Q9UHD2 whole entry): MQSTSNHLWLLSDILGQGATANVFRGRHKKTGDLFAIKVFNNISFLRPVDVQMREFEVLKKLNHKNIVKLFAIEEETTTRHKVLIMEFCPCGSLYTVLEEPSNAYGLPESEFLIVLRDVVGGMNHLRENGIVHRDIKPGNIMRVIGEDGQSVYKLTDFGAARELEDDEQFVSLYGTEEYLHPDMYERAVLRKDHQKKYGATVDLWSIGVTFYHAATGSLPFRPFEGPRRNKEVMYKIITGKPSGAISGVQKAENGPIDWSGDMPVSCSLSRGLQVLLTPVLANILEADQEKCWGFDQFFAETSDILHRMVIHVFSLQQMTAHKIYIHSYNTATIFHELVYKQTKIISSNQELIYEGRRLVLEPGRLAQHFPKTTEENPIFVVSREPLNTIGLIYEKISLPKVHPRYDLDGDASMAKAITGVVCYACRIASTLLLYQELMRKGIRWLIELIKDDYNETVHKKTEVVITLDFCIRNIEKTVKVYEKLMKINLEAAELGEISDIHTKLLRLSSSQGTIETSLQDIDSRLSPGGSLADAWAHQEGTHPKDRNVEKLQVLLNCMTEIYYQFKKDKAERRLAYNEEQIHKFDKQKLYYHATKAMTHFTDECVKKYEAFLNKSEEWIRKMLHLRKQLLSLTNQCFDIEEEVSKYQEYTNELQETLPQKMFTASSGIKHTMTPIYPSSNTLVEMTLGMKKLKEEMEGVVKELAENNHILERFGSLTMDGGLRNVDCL

[3] = biological target: Mitogen-activated protein kinase kinase kinase kinase 5 (Homo sapiens, UniProt Q9Y4K4)
[4] = biological target: 26S proteasome regulatory subunit 6B (Homo sapiens, UniProt P43686)
[5] = biological target: Macrophage-stimulating protein receptor (Homo sapiens, UniProt Q04912)
[6] = biological target: Receptor-interacting serine/threonine-protein kinase 2 (Homo sapiens, UniProt O43353)
[7] = biological target: T3, Mitogen-activated protein kinase kinase kinase kinase 2 (Homo sapiens, UniProt Q12851)
T3 sequence (Q12851 whole entry): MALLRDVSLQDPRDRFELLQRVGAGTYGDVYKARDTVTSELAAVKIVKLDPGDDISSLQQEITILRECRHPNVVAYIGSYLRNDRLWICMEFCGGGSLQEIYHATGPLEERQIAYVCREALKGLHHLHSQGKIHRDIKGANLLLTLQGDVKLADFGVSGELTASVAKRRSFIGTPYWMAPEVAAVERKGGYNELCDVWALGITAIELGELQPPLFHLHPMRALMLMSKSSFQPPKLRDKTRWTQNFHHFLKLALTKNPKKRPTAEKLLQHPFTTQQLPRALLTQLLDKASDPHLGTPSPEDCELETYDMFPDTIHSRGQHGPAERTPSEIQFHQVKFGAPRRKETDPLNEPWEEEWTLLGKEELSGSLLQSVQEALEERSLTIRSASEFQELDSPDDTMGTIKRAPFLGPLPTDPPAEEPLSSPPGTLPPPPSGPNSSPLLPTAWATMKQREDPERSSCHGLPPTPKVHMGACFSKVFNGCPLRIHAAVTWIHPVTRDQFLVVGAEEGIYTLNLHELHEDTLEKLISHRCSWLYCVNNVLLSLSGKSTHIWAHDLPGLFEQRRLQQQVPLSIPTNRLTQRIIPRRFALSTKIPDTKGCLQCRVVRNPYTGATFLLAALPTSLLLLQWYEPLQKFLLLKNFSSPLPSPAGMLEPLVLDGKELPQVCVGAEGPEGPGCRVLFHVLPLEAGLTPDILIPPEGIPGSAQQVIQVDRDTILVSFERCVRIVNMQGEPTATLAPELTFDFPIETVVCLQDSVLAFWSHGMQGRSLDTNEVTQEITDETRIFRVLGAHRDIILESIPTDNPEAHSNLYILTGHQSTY
Note: in the data inactive means no Kd found up to 30 µM.

Sequence of 26S proteasome regulatory subunit 6B (P43686 whole entry): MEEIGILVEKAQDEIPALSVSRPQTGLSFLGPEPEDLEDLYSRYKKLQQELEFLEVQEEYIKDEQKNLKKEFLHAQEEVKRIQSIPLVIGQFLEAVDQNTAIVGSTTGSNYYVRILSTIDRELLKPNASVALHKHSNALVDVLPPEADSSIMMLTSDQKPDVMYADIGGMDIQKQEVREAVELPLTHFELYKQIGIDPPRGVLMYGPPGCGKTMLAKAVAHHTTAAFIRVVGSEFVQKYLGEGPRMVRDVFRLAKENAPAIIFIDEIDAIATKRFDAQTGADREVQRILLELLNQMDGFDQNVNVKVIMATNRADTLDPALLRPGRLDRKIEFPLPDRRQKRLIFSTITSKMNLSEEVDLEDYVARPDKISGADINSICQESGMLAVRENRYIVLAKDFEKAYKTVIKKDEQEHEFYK
Sequence of Receptor-interacting serine/threonine-protein kinase 2 (O43353 whole entry): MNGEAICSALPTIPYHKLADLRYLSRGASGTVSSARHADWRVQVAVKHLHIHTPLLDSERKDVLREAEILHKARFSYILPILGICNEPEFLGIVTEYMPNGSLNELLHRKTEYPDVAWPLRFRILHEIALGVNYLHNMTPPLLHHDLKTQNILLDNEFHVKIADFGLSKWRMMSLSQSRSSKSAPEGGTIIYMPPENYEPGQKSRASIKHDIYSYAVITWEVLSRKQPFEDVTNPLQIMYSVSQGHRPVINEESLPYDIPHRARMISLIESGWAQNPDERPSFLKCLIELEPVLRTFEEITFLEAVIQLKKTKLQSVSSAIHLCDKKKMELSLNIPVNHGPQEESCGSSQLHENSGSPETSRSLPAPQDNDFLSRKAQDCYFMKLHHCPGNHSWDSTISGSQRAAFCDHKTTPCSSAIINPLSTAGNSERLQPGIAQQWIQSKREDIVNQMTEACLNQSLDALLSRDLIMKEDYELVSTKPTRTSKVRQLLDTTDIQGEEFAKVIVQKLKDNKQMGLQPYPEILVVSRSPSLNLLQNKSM
Sequence of Macrophage-stimulating protein receptor (Q04912 25-304 limits assumed): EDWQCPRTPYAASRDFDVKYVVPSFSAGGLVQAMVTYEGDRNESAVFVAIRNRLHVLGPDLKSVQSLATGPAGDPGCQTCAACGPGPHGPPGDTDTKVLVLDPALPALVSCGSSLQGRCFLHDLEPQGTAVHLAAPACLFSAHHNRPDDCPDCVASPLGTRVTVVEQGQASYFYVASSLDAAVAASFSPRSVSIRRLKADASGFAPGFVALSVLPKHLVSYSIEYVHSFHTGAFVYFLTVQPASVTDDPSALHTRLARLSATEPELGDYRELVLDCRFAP
Sequence of Macrophage-stimulating protein receptor (Q04912 310-1400 limits assumed): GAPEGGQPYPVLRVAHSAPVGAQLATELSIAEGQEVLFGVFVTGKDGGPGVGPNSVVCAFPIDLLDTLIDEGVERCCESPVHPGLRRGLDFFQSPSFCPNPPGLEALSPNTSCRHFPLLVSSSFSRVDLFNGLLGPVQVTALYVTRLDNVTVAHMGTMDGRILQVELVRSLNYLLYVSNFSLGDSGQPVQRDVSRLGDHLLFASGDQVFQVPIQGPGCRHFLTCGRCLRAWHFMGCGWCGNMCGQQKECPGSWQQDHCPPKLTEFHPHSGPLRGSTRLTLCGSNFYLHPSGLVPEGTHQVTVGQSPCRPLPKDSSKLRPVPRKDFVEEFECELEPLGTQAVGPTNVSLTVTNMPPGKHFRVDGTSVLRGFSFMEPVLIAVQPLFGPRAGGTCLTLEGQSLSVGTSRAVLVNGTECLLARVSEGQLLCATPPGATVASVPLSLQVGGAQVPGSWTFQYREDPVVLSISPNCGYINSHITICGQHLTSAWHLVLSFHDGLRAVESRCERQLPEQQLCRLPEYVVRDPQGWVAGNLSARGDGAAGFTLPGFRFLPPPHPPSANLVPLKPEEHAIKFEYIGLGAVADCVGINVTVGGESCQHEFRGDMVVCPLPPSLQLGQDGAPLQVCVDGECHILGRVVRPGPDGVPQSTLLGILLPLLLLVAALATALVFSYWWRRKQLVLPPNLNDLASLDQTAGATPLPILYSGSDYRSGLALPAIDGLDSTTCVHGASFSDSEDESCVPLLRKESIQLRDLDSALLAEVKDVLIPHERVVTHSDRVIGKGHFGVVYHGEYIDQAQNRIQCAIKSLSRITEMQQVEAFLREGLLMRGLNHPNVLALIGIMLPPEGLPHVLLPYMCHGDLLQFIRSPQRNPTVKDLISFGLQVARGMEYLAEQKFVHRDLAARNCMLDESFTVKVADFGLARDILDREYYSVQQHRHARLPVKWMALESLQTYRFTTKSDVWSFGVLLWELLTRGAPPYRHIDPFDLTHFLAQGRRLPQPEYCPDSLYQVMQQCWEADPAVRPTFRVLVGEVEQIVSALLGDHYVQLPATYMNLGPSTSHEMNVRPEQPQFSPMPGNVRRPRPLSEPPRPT
Sequence of Mitogen-activated protein kinase kinase kinase kinase 5 (Q9Y4K4 whole entry): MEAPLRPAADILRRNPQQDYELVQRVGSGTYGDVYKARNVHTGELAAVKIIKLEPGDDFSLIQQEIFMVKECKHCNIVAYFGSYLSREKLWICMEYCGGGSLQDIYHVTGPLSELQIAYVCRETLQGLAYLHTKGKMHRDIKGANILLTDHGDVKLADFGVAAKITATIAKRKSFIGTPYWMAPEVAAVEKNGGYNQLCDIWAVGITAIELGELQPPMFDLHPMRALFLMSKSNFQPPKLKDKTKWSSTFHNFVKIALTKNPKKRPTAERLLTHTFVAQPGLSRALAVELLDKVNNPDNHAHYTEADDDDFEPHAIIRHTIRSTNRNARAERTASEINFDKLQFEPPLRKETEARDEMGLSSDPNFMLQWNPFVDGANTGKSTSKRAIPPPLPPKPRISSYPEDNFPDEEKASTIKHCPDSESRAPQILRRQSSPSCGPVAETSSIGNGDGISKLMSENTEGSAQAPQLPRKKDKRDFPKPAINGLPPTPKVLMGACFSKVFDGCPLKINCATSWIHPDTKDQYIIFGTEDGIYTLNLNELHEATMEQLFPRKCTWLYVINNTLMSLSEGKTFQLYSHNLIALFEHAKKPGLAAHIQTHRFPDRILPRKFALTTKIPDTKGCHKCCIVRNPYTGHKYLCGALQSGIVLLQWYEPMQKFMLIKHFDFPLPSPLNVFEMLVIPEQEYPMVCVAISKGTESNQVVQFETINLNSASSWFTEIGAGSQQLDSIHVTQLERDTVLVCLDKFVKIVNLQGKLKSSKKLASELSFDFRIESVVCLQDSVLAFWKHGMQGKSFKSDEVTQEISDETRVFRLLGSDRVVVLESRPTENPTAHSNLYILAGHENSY

Kd [1] | Kd [2] | Kd [3] | Kd [4] | Kd [5] | Kd [6] | Kd [7] | SMILES
> 30 µM (inactive) | > 30 µM (inactive) | > 30 µM (inactive) | > 30 µM (inactive) | > 30 µM (inactive) | > 30 µM (inactive) | > 30 µM (inactive) | C=CC(=O)Nc1cc2c(Nc3ccc(F)c(Cl)c3)ncnc2cc1C#CC(C)(C)N1CCN(C)CC1 [AV-412 FREE BASE]
> 30 µM (inactive) | > 30 µM (inactive) | > 30 µM (inactive) | > 30 µM (inactive) | > 30 µM (inactive) | > 30 µM (inactive) | > 30 µM (inactive) | Cc1cc(C(=O)NOCCO)c(Nc2ccc(I)cc2F)n(C)c1=O [AZD-8330]
> 30 µM (inactive) | > 30 µM (inactive) | > 30 µM (inactive) | > 30 µM (inactive) | > 30 µM (inactive) | > 30 µM (inactive) | > 30 µM (inactive) | Cn1cnc2c(F)c(Nc3ccc(Br)cc3F)c(C(=O)NOCCO)cc21 [BINIMETINIB]
> 30 µM (inactive) | > 30 µM (inactive) | 20.1 µM (active) | > 30 µM (inactive) | > 30 µM (inactive) | 0.442 µM (active) | 2.82 µM (active) | COc1cc2ncnc(Oc3cccc(NC(=O)Nc4cc(C(C)(C)C(F)(F)F)on4)c3)c2cc1OC [CEP-32496]
> 30 µM (inactive) | > 30 µM (inactive) | > 30 µM (inactive) | > 30 µM (inactive) | > 30 µM (inactive) | > 30 µM (inactive) | > 30 µM (inactive) | COc1c(OCCCN2CCOCC2)ccc2c1N=C(NC(=O)c1cnc(N)nc1)N1CCN=C21 [COPANLISIB]
> 30 µM (inactive) | > 30 µM (inactive) | > 30 µM (inactive) | > 30 µM (inactive) | > 30 µM (inactive) | > 30 µM (inactive) | > 30 µM (inactive) | COCC(=O)NC/C=C/c1ccc2ncnc(Nc3ccc(Oc4ccc(C)nc4)c(C)c3)c2c1 [CP-724714]
> 30 µM (inactive) | > 30 µM (inactive) | > 30 µM (inactive) | > 30 µM (inactive) | > 30 µM (inactive) | 1.09 µM (active) | > 30 µM (inactive) | C#Cc1cccc(Nc2ncnc3cc(OC)c(OCCCCCCC(=O)NO)cc23)c1 [CUDC-101]

The next lines start with the compound.

SMILES | Kd [1] | Kd [2] | Kd [3] | Kd [4] | Kd [5] | Kd [6] | Kd [7]
Cc1nc(NC(=O)N2CCC[C@H]2C(N)=O)sc1-c1ccnc(C(C)(C)C(F)(F)F)c1 [ALPELISIB] | > 30 µM (inactive) | > 30 µM (inactive) | > 30 µM (inactive) | > 30 µM (inactive) | > 30 µM (inactive) | > 30 µM (inactive) | > 30 µM (inactive)
Cc1csc(-c2nnc(Nc3ccc(Oc4ncccc4-c4ccnc(N)n4)cc3)c3ccccc23)c1 [AMG-900] | > 30 µM (inactive) | > 30 µM (inactive) | 1.71 µM (active) | > 30 µM (inactive) | > 30 µM (inactive) | > 30 µM (inactive) | 0.186 µM (active)
COc1cc([C@@H]2c3cc4c(cc3[C@H](O)[C@H]3COC(=O)[C@@H]23)OCO4)cc(OC)c1OC [AXL-1717] | > 30 µM (inactive) | > 30 µM (inactive) | > 30 µM (inactive) | > 30 µM (inactive) | > 30 µM (inactive) | > 30 µM (inactive) | > 30 µM (inactive)
CCn1c(C(=O)N(C2CC2)C2CC2)cc2c3c(ncn3C)c(Nc3cc(C)n(C)n3)nc21 [BMS-911543] | > 30 µM (inactive) | > 30 µM (inactive) | > 30 µM (inactive) | > 30 µM (inactive) | > 30 µM (inactive) | > 30 µM (inactive) | > 30 µM (inactive)
Cc1cc(Nc2ncc(Cl)c(Nc3ccccc3S(=O)(=O)C(C)C)n2)c(OC(C)C)cc1C1CCNCC1 [CERITINIB] | > 30 µM (inactive) | > 30 µM (inactive) | > 30 µM (inactive) | > 30 µM (inactive) | > 30 µM (inactive) | > 30 µM (inactive) | > 30 µM (inactive)
